For 13 compounds, pest or weed control and chromatographic logP results are on record in patent US8383139B2 (Bayer CropScience AG, priority 2008, dated 2013).

Like-named read-outs stand apart in the source and are kept apart here.

One series relates to Alternaria solani. Nature of the series: Alternaria test (tomato)/protective. Type of series: in vivo. The settings on record: 72 h, 100 ppm active substance, protective, evaluation 3 days after inoculation, read-out: degree of effectiveness.
Another series has as its system Uromyces appendiculatus. In words: Uromyces test (beans)/protective. The format is in vivo. The settings on record: 240 h, 100 ppm active substance, protective, evaluation 10 days after inoculation, read-out: degree of effectiveness. Put shortly:
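Young bean plants were sprayed with compound (acetone/dimethylacetamide/emulsifier concentrate diluted in water), dried, then inoculated with U. appendiculatus spores. They were held 1 day at ~20 °C, 100% RH, then kept in a greenhouse at ~21 °C, ~90% RH. Efficacy was scored at 10 days post-inoculation (0% = control, 100% = no infestation).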

The subject of another series is Sphaerotheca fuliginea. Nature of the series: Sphaerotheca test (cucumber)/protective. Type of series: in vivo. The settings on record: Podosphaera fuliginea, 168 h, 500 ppm active substance, protective, evaluation 7 days after inoculation, read-out: degree of effectiveness. Put shortly:
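Young cucumber plants sprayed at the stated rate with active substance in DMF/alkylaryl polyglycol ether emulsifier diluted in water, then inoculated with Sphaerotheca fuliginea spores one day later. Kept in greenhouse at 70% relative humidity, 23° C.; scored 7 days post-inoculation as % efficacy (0% = untreated control, 100% = no infestation).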

For a further series, the system named is Puccinia triticina. Nature of the series: Puccinia triticina test (wheat)/protective. The format is in vivo. The settings on record: 192 h, 500 ppm active substance, protective, evaluation 8 days after inoculation, read-out: degree of effectiveness. Put shortly: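 Protective test: young wheat plants sprayed with compound (in N,N-dimethylacetamide/emulsifier, diluted in water) at the stated rate, dried, then inoculated with Puccinia triticina spores; 48 h at 20 °C, 100% RH, then greenhouse ~20 °C, ~80% RH. Efficacy scored 8 days post-inoculation, 0% = untreated control, 100% = no infestation.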

The test system of the next series is Septoria tritici. Nature of the series: Septoria tritici test (wheat)/protective. The format is in vivo. The settings on record: Zymoseptoria tritici, 504 h, 500 ppm active substance, protective, evaluation 21 days after inoculation, read-out: degree of effectiveness. The essentials:
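Young wheat plants sprayed with compound in dimethylacetamide/emulsifier-water, then inoculated with S. tritici spores once dry. Kept 48 h at 20 °C/100% RH, 60 h at 15 °C/100% RH, then greenhouse ~15 °C/80% RH. Scored 21 days post-inoculation as % efficacy versus untreated control.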

Another series relates to Phakopsora pachyrhizi. Nature of the series: Phakopsora test (soybean)/protective. Type of series: in vivo. The settings on record: 264 h, 500 ppm active substance, protective, evaluation 11 days after inoculation, read-out: degree of effectiveness. As to the method:
• Solvent: 28.5 parts by weight of acetone • Emulsifier: 1.5 parts by weight of polyoxyethylene alkylphenyl ether (polyoxy-ethylene (16) tristearylphenyl ether)
To prepare a suitable active substance composition, 1 part by weight of active substance is mixed with the given amounts of solvent and emulsifier and the concentrate is diluted to the desired concentration using water.
For the testing of protective effectiveness, young plants are sprayed with the active substance composition at the application rate given. One day after the spraying, the plants are sprayed with an aqueous suspension of spores of Phakopsora pachyrhizi. The plants remain in a greenhouse at 20° C. and 80% relative humidity.
Evaluation is carried out 11 days after the inoculation. In this connection, 0% means a degree of effectiveness corresponding to that of the control, while a degree of effectiveness of 100% means that no infestation is observed.

A short description of series [1]: log P by HPLC on reversed-phase columns (C 18), EEC Directive 79/831 Annex V.A8. The format is physicochemical. The settings on record: reversed-phase C18 HPLC column.
The mark [2] stands for this setting: pH 2.3, [a] HPLC, acid region pH 2.3, 0.1% aqueous phosphoric acid and acetonitrile, read-out: log p.
The mark [3] stands for this setting: pH 2.3, pH 2.3, given in synthesis examples, read-out: log P (pH2.3).

For the compound `CCN(C)C=Nc1cc(C)c(Oc2nc(Cc3ccc(Cl)cc3)ns2)cc1C` [Example 1, N′-(4-{[3-(4-chlorobenzyl)-1,2,4-thiadiazol-5-yl]oxy}-2,5-dimethylphenyl)-N-ethyl-N-methylimidoformamide], the pest or weed control at 100 ppm in the series with Alternaria solani and in the series with Uromyces appendiculatus was at least 70% in each case. In addition, the pest or weed control at 500 ppm in the series with Sphaerotheca fuliginea is at least 70%; with Puccinia triticina, at least 70%; in the series with Septoria tritici it was at least 70%; in the series with Phakopsora pachyrhizi it was at least 80%.
For the compound `Cc1cc(Oc2nc(Cc3ccc(Cl)cc3)ns2)c(C)cc1N=CN1CCCCC1` [Example 2, 4-{[3-(4-chlorobenzyl)-1,2,4-thiadiazol-5-yl]oxy}-2,5-dimethyl-N-(piperidin-1-ylmethylidene)aniline], in series [1] (setting [2]), the chromatographic logP turned out to be 2.09. Besides, the pest or weed control at 100 ppm in the series with Alternaria solani and with Uromyces appendiculatus was at least 70% each time. For the same compound, the pest or weed control at 500 ppm in the series on Sphaerotheca fuliginea was at least 70%; in the series with Puccinia triticina, at least 70%; in the series with Septoria tritici it was at least 70%; with Phakopsora pachyrhizi, at least 80%.
As to `CCN(C)C=Nc1cc(Cl)c(Oc2nc(Cc3ccc(Cl)cc3)ns2)cc1C` [Example 3, N′-(5-chloro-4-{[3-(4-chlorobenzyl)-1,2,4-thiadiazol-5-yl]oxy}-2-methylphenyl)-N-ethyl-N-methylimidoformamide], the pest or weed control at 100 ppm in the series with Alternaria solani and with Uromyces appendiculatus was at least 70% in each case. Further, the pest or weed control at 500 ppm in the series on Sphaerotheca fuliginea is at least 70%; with Puccinia triticina, at least 70%; with Septoria tritici, at least 70%; in the series with Phakopsora pachyrhizi, at least 80%.
With `CCN(C)C=Nc1cc(C)c(Oc2nc(Cc3ccc(Cl)cc3Cl)ns2)cc1C` [Example 11, N′-(4-{[3-(2,4-dichlorobenzyl)-1,2,4-thiadiazol-5-yl]oxy}-2,5-dimethylphenyl)-N-ethyl-N-methylimidoformamide], the chromatographic logP in series [1] (setting [2]) stood at 2.19. In addition, the pest or weed control at 100 ppm with Alternaria solani and in the series with Uromyces appendiculatus was at least 70% in each case. The pest or weed control at 500 ppm was at least 70% with Sphaerotheca fuliginea, at least 70% in the series on Puccinia triticina, at least 70% with Septoria tritici and at least 80% with Phakopsora pachyrhizi.
Consider `CCN(C)C=Nc1cc(C)c(Oc2nc(C(C)c3ccc(Cl)cc3)ns2)cc1C` (stereo not drawn) [Example 17, N′-[4-({3-[1-(4-chlorophenyl)ethyl]-1,2,4-thiadiazol-5-yl}oxy)-2,5-dimethylphenyl]-N-ethyl-N-methylimidoformamide], for which, in series [1] (setting [2]), the chromatographic logP stood at 2.34. Besides, the pest or weed control at 100 ppm with Alternaria solani and in the series on Uromyces appendiculatus was at least 70% each time. Also, the pest or weed control at 500 ppm with Sphaerotheca fuliginea was at least 70%; with Puccinia triticina it was at least 70%; in the series with Septoria tritici, at least 70%; in the series with Phakopsora pachyrhizi, at least 80%.
With `CCN(C)C=Nc1cc(C)c(Oc2nc(Cc3ccc(C)cc3[N+](=O)[O-])ns2)cc1C` [Example 24, N′-(2,5-dimethyl-4-{[3-(4-methyl-2-nitrobenzyl)-1,2,4-thiadiazol-5-yl]oxy}phenyl)-N-ethyl-N-methylimidoformamide], the chromatographic logP in series [1] (setting [2]) stood at 1.89. The pest or weed control at 100 ppm in the series with Alternaria solani and in the series on Uromyces appendiculatus was at least 70% throughout. Also, the pest or weed control at 500 ppm with Sphaerotheca fuliginea is at least 70%; in the series on Puccinia triticina, at least 70%; in the series with Septoria tritici, at least 70%; in the series on Phakopsora pachyrhizi it was at least 80%.
On to `CCN(C)C=Nc1cc(C)c(Oc2nc(C(C)(C)c3ccc(Cl)cc3)ns2)cc1C` [Example 25, N′-[4-({3-[2-(4-chlorophenyl)propan-2-yl]-1,2,4-thiadiazol-5-yl}oxy)-2,5-dimethylphenyl]-N-ethyl-N-methylimidoformamide], for which, in series [1] (setting [2]), the chromatographic logP was determined as 2.55. For the same compound, the pest or weed control at 100 ppm in the series with Alternaria solani and in the series on Uromyces appendiculatus was at least 70% in each case. The pest or weed control at 500 ppm in the series with Sphaerotheca fuliginea is at least 70%; in the series on Puccinia triticina, at least 70%; in the series with Septoria tritici, at least 70%; in the series on Phakopsora pachyrhizi, at least 80%.
Turning to `CCN(C)C=Nc1cc(C)c(Oc2nc(Cc3ccc(Br)cc3)ns2)cc1C` [Example 31, N′-(4-{[3-(4-bromobenzyl)-1,2,4-thiadiazol-5-yl]oxy}-2,5-dimethylphenyl)-N-ethyl-N-methylimidoformamide], the chromatographic logP in series [1] (setting [2]) is 2.07. Further, the pest or weed control at 100 ppm with Alternaria solani and in the series with Uromyces appendiculatus was at least 70% each time. Further, the pest or weed control at 500 ppm with Sphaerotheca fuliginea is at least 70%; with Puccinia triticina, at least 70%; in the series on Septoria tritici it was at least 70%; in the series with Phakopsora pachyrhizi, at least 80%.
For `Cc1cc(Oc2nc(Cc3ccc(Br)cc3)ns2)c(C)cc1N=CN(C)C(C)C` [Example 32, N′-(4-{[3-(4-bromobenzyl)-1,2,4-thiadiazol-5-yl]oxy}-2,5-dimethylphenyl)-N-methyl-N-(propan-2-yl)imidoformamide], the pest or weed control at 100 ppm in the series on Alternaria solani and in the series on Uromyces appendiculatus was at least 70% in each case. The pest or weed control at 500 ppm with Sphaerotheca fuliginea is at least 70%; in the series on Puccinia triticina it was at least 70%; with Septoria tritici it was at least 70%; with Phakopsora pachyrhizi, at least 80%.
Turning to `CCN(C)C=Nc1cc(C)c(Oc2nc(Cc3cccc(Cl)c3)ns2)cc1C` [Example 35, N′-(4-{[3-(3-chlorobenzyl)-1,2,4-thiadiazol-5-yl]oxy}-2,5-dimethylphenyl)-N-ethyl-N-methylimidoformamide], the chromatographic logP in series [1] (setting [2]) and in series [1] (setting [3]) was 2.31 throughout. Also, the pest or weed control at 100 ppm with Alternaria solani and in the series with Uromyces appendiculatus was at least 70% each time. Moreover, the pest or weed control at 500 ppm was at least 70% in the series on Sphaerotheca fuliginea, at least 70% with Puccinia triticina, at least 70% with Septoria tritici and at least 80% in the series on Phakopsora pachyrhizi.
For `CCN(C)C=Nc1cc(C)c(Oc2nc(C3(c4ccc(Cl)cc4)CC3)ns2)cc1C` [Example 37, N′-[4-({3-[1-(4-chlorophenyl)cyclopropyl]-1,2,4-thiadiazol-5-yl}oxy)-2,5-dimethylphenyl]-N-ethyl-N-methylimidoformamide], the chromatographic logP in series [1] (setting [2]) is 2.21; in series [1] (setting [3]) it was 2.28. Moreover, the pest or weed control at 100 ppm in the series on Alternaria solani and with Uromyces appendiculatus was at least 70% in each case. Also, the pest or weed control at 500 ppm is at least 70% in the series on Sphaerotheca fuliginea, at least 70% in the series on Puccinia triticina, at least 70% in the series on Septoria tritici and at least 80% in the series on Phakopsora pachyrhizi.
Regarding `CCN(C)C=Nc1cc(Cl)c(Oc2nc(C3(c4ccc(Cl)cc4)CC3)ns2)cc1C` [Example 40, N′-[5-chloro-4-({3-[1-(4-chlorophenyl)cyclopropyl]-1,2,4-thiadiazol-5-yl}oxy)-2-methylphenyl]-N-ethyl-N-methylimidoformamide], the chromatographic logP in series [1] (setting [2]) was found to be 2.55. For the same compound, the pest or weed control at 100 ppm in the series with Alternaria solani and in the series with Uromyces appendiculatus was at least 70% throughout. In addition, the pest or weed control at 500 ppm in the series with Sphaerotheca fuliginea was at least 70%; in the series with Puccinia triticina, at least 70%; with Septoria tritici it was at least 70%; in the series with Phakopsora pachyrhizi, at least 80%.
In the case of `CCN(C)C=Nc1cc(C)c(Oc2nc(Cc3ccccc3OC)ns2)cc1C` [Example 49, N-ethyl-N′-(4-{[3-(2-methoxybenzyl)-1,2,4-thiadiazol-5-yl]oxy}-2,5-dimethylphenyl)-N-methylimidoformamide], the chromatographic logP in series [1] (setting [2]) came out at 1.83. Further, the pest or weed control at 100 ppm in the series on Alternaria solani and with Uromyces appendiculatus was at least 70% in each case. Further, the pest or weed control at 500 ppm was at least 70% in the series with Sphaerotheca fuliginea, at least 70% in the series with Puccinia triticina, at least 70% with Septoria tritici and at least 80% in the series with Phakopsora pachyrhizi.
